Legend:
[1] = system: cardiac fibroblasts (CFs); assay: bFGF-induced α-SMA protein expression in CFs (Western blot); assay type: cell-based, rat; conditions: fragment expressed; 10 ng/ml FGF 48 hours; 100 nM ANP
Description: NP's ability to inhibit growth factor-induced CF differentiation into myofibroblasts was determined as follows. CFs were transiently transfected with insertless pcDNA3 vector or pcDNA3 encoding sNRF^(806-900) (see Example 7). The transfected CFs were then treated for 48 hours with 10 ng/ml basic fibroblast growth factor (FGF; Sigma-Aldrich #F0291) in the presence or absence of 100 nM ANP. Alpha-smooth muscle actin (α-SMA) protein expression, the principal marker of CF differentiation, was assessed by Western blotting and immunofluorescence microscopy. Vimentin staining was used as a loading control because it is expressed equally in fibroblasts and transdifferentiated myofibroblasts.

NPRA = target: T1, NPRA (Rattus norvegicus, UniProt P18910); assay: Total cGMP by enzyme immunoassay in NP-treated CFs; assay type: cell-based; conditions: fragment expressed alone, no ANP; 100 μM IBMX
T1 construct: endogenous in cells; host or cells: primary neonatal rat cardiac fibroblasts, transfected with insertless vector or sNRF^(806-900)
T1 sequence (P18910 29-1057): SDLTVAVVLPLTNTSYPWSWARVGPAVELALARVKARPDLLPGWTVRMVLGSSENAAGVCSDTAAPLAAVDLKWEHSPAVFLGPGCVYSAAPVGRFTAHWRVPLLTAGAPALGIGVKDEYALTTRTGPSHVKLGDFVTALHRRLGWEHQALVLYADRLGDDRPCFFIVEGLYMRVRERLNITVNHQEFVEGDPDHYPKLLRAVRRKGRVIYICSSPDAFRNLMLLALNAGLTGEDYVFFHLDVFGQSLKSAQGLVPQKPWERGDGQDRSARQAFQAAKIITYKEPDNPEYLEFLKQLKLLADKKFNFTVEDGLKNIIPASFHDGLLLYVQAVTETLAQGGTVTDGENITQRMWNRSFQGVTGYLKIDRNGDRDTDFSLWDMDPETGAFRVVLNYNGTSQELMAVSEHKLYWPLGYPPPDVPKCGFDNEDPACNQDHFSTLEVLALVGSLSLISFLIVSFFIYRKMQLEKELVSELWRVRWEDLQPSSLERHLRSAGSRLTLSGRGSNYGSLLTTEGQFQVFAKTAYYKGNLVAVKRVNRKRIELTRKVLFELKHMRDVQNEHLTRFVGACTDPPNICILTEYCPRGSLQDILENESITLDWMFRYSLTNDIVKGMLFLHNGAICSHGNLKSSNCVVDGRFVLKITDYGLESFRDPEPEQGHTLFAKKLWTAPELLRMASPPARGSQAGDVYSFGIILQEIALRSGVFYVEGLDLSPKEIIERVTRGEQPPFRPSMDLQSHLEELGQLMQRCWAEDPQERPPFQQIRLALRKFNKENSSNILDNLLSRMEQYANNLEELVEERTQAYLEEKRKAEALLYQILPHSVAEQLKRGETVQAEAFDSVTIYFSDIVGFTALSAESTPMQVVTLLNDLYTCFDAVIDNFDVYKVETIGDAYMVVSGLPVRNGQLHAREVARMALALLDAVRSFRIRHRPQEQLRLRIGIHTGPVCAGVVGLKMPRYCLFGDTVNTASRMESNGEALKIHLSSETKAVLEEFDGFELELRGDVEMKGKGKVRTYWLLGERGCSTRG
Description: The ability of sNRF^(806-900) to reduce or inhibit downstream effects by modulating the intrinsic guanylyl cyclase activity of NPRA, was determined by measuring total cGMP levels in NP-treated CFs. CFs were transfected with insertless vector or sNRF^(806-900) as described in Example 7 and treated with ANP (100 nM) for 15 minutes. cGMP concentration was determined by enzyme immunoassay using a commercial kit (Enzyme immunoassay Biotrak EIA System, Amersham Biosciences). In all experiments, cells were treated with 100 μM IBMX with or without ANP.

“sNRF^(806-900): intracellular NPRA fragment, residues 806-900, excludes the cyclase-containing domain; shortest fragment observed to associate with PKG” was tested, and the “ANP's inhibitory effect on growth factor-induced α-SMA protein expression” value [1] was “reversed ANP's inhibitory effect” and the cGMP levels (NPRA) was “significantly increased cGMP levels”.
